Source: US12697353B2, “Compositions comprising cinnamaldehyde and zinc and methods of using such compositions” (SOCIÉTÉ DES PRODUITS NESTLÉ S.A., priority 2015, dated 2026)

Tests used:
[1] = molecular target: T1, hTRPA1 expressed in CHO cells (Homo sapiens, UniProt O75762); assay: in vitro activity of hTRPA1 expressed in CHO cells, intracellular calcium concentration with a fluorescent dye; type: cell-based; design: dose or concentration left out as unconfirmed; conditions: according to a dose-response curve
T1 construct: expressed in transfected cells; host or cells: CHO cells

[2] = nose temperature after ingestion in human subjects; type: in vivo; conditions: fifteen minutes following ingestion, FIG. 7
Experimental: The nose temperature of the subjects was analyzed over the fifteen minutes following ingestion of the various compounds.

[3] = chin temperature after ingestion in human subjects; type: in vivo; conditions: eighty minutes following ingestion, FIG. 8
Experimental: The chin temperature of the subjects was measured over the eighty minutes following ingestion of the various compounds.

TRPA1 = TRPA1 (Homo sapiens, UniProt O75762); conditions: read-out: EC50 of TRPA1 activation; cited from earlier work
[4] = insulin sensitivity in mice with chronic ingestion of cinnamaldehyde in a high fat diet; type: in vivo; conditions: mice chronically fed a high fat diet containing 0.2 wt % cinnamaldehyde, FIG. 11
Description: The composition can thereby reduce glycemia.

[5] = energy expenditure after ingestion in human subjects; type: in vivo
Experimental: Human subjects were administered placebo, a cooling flavor, capsaicin, or cinnamaldehyde. The energy expenditure was measured over the eighty minutes following ingestion. […] The increased sympathetic activity identified by measuring the facial temperature (increased blood flow on the chin) might explain the increased energy expenditure measured by indirect calorimetry.

[6] = postprandial fat oxidation after ingestion in human subjects; type: in vivo
Experimental: The postprandial fat oxidation was measured over the 90 minutes following ingestion of the various compounds.

[7] = at a flavoring level judged significantly less intense than capsaicin

T1 sequence (O75762 whole entry): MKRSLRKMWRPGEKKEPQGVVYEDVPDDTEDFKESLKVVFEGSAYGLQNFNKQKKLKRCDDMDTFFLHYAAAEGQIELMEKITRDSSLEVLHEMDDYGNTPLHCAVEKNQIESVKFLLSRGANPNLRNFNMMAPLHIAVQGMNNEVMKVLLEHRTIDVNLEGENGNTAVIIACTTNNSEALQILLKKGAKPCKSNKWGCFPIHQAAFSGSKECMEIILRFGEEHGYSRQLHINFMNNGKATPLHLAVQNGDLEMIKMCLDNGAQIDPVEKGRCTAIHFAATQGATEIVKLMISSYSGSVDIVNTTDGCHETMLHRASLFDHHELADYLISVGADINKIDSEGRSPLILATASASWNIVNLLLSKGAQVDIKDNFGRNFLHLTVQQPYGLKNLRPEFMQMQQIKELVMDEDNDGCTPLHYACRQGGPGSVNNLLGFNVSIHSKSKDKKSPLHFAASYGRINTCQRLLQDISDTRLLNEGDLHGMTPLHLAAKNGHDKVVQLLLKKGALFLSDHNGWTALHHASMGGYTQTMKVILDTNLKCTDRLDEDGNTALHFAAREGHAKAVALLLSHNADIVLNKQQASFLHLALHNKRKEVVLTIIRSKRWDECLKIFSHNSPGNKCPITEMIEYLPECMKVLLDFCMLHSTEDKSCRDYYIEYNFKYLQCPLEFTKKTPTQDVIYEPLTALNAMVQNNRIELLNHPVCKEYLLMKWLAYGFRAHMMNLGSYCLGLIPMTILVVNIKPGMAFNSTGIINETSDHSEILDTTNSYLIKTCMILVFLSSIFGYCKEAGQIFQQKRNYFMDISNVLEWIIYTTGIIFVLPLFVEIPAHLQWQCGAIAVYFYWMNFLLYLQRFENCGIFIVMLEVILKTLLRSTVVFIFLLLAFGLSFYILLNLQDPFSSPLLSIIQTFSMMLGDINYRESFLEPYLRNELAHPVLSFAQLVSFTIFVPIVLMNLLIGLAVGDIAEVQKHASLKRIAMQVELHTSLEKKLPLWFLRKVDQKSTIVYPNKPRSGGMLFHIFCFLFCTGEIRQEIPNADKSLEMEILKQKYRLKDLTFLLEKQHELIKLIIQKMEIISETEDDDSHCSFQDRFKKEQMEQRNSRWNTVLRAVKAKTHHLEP
Sequence of TRPA1 (O75762 whole entry, species assumed): as the sequence (O75762 whole entry) above

| Compound | efficacy on hTRPA1 of the positive control C+ [1] | nose temperature [2] | chin temperature relative to baseline [3] | EC50 (TRPA1) [µM] | insulin sensitivity relative to mice fed the same high fat diet without cinnamaldehyde [4] | impact on energy expenditure and sympathetic nervous system activity compared to capsaicin [5, 7] | energy expenditure compared to placebo ([5]; human subjects, eighty minutes following ingestion, time course and AUC, FIGS. 3 and 4) | effect on fat oxidation compared to capsaicin [6, 7] | postprandial fat oxidation compared to placebo ([6]; human subjects, 90 minutes following ingestion, time course and AUC, FIGS. 5 and 6) |
| --- | --- | --- | --- | --- | --- | --- | --- | --- | --- |
| O=CC=Cc1ccccc1 [cinnamaldehyde] | maximum efficacy | increase nose temperatures | increases chin temperature for a prolonged time | ~10 | improved insulin sensitivity | significantly higher impact | increased | equivalent effect | maintained at higher levels |
| COc1cc(CNC(=O)CCCC/C=C/C(C)C)ccc1O [capsaicin, reference compound] |  | increase nose temperatures |  |  |  |  |  |  |  |
